# Laboratory results published in patent US12427212B2, “Nectin-4 binding miniproteins, conjugates and uses thereof” (Aktis Oncology, Inc., priority 2023, dated 2025).
# Bridges are numbered along the chain shown (N, C = ends). [ ]: non-standard residue; d: D form. The star is where a group is joined. DOTA = O=C(O)CN1CCN(CC(=O)O)CCN(CC(=O)*)CCN(CC(=O)O)CC1; Biotin = O=C1N[C@H]2[C@H](CS[C@H]2CCCCC(=O)*)N1; Lys(Me3) = C[N+](C)(C)CCCC[C@H](N)C(=O)O; Cit = NC(=O)NCCC[C@H](N)C(=O)O; PEG4 = NCCOCCOCCOCCOCCC(=O)O
# Molecular target: T1, Nectin-4 (Homo sapiens, UniProt Q96NY8)
# T1 sequence (Q96NY8 32-510): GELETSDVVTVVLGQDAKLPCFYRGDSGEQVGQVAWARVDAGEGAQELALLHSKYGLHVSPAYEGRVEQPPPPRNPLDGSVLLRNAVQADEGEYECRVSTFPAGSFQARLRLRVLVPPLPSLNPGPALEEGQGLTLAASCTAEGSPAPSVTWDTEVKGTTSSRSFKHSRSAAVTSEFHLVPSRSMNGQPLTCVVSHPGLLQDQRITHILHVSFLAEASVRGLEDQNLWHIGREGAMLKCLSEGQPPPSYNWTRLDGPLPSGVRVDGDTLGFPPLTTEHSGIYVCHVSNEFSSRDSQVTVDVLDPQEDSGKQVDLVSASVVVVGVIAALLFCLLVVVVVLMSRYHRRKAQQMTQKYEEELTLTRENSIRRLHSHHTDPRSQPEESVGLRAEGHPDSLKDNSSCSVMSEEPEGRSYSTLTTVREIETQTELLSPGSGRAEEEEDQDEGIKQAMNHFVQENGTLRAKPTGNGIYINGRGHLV
# Test: DELFIA whole cell binding assay, equilibrium binding affinity (KD), Table 2B
# Settings: not given
# Procedure: A whole cell binding assay was used to estimate the equilibrium binding affinity (KD) or binding inhibition constant (Ki) of miniprotein ligands to cells expressing a target of interest. Cells were dispensed into a 384-well plate and incubated at 37° C., in 5% CO2 overnight. The next day cells were gently washed once in assay buffer prior to addition of europium chelated ligand. For KD determination, a miniprotein conjugated with europium chelate (DOTA or DTPA) in the presence or absence of 100-fold excess un-conjugated ligand was incubated with cells over 12 different concentrations ranging from 100 times below and above expected KD values. For Ki determination, a single concentration (KD equivalent concentration) of europium-chelate miniprotein was added to each well followed immediately by the addition of unconjugated competing ligand over 12 different concentrations ranging from 100 times below and above expected Ki values as before. The plate was incubated for 1.5 h at room temperature to reach binding equilibrium. Cells were then washed three times at room temperature with 1×PBS followed by the addition of 2 M HCl and incubated for two h at 37° C. Following this step, 2 M NaOH and fluorescent inducer solution were added to each well and incubated for 30 minutes at room temperature according to the manufacturer's protocol (Perkin-ELMER DELFIA assay). Plates were read on an Envision plate reader and a curve-fitting model was applied to estimate KD and Ki values using GraphPad Prism software. Mean DELFIA K; values for exemplary miniproteins are recorded in TABLE 9A.
row,Compound,Kd [nM]
1,"{Biotin-PEG4}-CDYDEEFFTALA[Cit]LRGGDICEYIQAKFQYLPGLCIEEILDNLGCS-OH (disulfide 1-34, 20-44) [Compound C176]",1.3
2,"{Biotin-PEG4}-CDYDEEFFTALKRLRGDDICSYIQASFQYLPGLCIEEILDNLGCS-OH (disulfide 1-34, 20-44) [Compound C192]",1.3
3,"{Biotin-PEG4}-CDYDEEFFTALKRLRGGDICEYIQASFQYLPGLCIEEILDNLGCS-OH (disulfide 1-34, 20-44) [Compound C188]",1.6
4,"{Biotin-PEG4}-CEYDEAFFTALARLRGGDICQYIQAKFQYLPGLCIEEILDNLGCS-OH (disulfide 1-34, 20-44) [Compound C151]",0.68
5,"{Biotin-PEG4}-CEYDEEFFTALARLRGGDICEYIQAKFQYLPKLCIEEILDNLGCS-OH (disulfide 1-34, 20-44) [Compound C167]",1.2
6,"{Biotin-PEG4}-CEYDEEFFTALARLRGGDICQYIQAKFAYVPGLCIEEILDNLGCS-OH (disulfide 1-34, 20-44) [Compound C155]",1.1
7,"{Biotin-PEG4}-CEYDEEFFTALARLRGGDICYYIQAYFQYLPGLCIEEILDNLGCS-OH (disulfide 1-34, 20-44) [Compound C165]",4.1
8,"{Biotin-PEG4}-CEYDEEFFTALA[Cit]LRGDDICSYIQAKFQYLPGLCIEEILDNLGCS-OH (disulfide 1-34, 20-44) [Compound C172]",1.8
9,"{Biotin-PEG4}-CEYDEEFFTALA[Cit]LRGGDICEYIQAKFQYLPGLCIEEILDNLGCS-OH (disulfide 1-34, 20-44) [Compound C171]",2.2
10,"{Biotin-PEG4}-CEYDEEFFTALA[Cit]LRGGDICSYIQAKFQYLPGLCIEEILDNLGCS-OH (disulfide 1-34, 20-44) [Compound C175]",2.3
11,"{Biotin-PEG4}-CEYDEEFFTALKRLRGDDICEYIQASFQYLPGLCIEEILDNLGCS-OH (disulfide 1-34, 20-44) [Compound C181]",3
12,"{Biotin-PEG4}-CEYDEEFFTALKRLRGDDICYYIQASFQYLPGLCIEEILDNLGCS-OH (disulfide 1-34, 20-44) [Compound C180]",2.7
13,"{Biotin-PEG4}-CEYDEEFFTALKRLRGGDICEYIQASFQYLPGLCIEEILDNLGCS-OH (disulfide 1-34, 20-44) [Compound C178]",1.4
14,"{Biotin-PEG4}-CEYDEEFFTALKRLRGGDICEYIQA[Lys(Me3)]FQYLPGLCIEEILDNLGCS-OH (disulfide 1-34, 20-44) [Compound C201]",0.68
15,"{Biotin-PEG4}-CEYDEEFFTALKRLRGGDICYYIQAKFQYLPKLCIEEILDNLGCS-OH (disulfide 1-34, 20-44) [Compound C119]",0.95
16,"{Biotin-PEG4}-CEYDEEFFTALKRLRGGDICYYIQASFQYLPGECIEEILDNLGCS-OH (disulfide 1-34, 20-44) [Compound C177]",2
17,"{Biotin-PEG4}-CEYDEQFFTALARLRGGDICEYIQAKFQYLPGLCIEEILDNLGCS-OH (disulfide 1-34, 20-44) [Compound C146]",0.54
18,"{Biotin-PEG4}-CEYDEQFFTALKRLRGADICDYIQASFQYLPGLCIEEILDNLGCS-OH (disulfide 1-34, 20-44) [Compound C194]",1.1
19,"{Biotin-PEG4}-CEYDEQFFTALKRLRGGDICDYIQASFQYLPGLCIEEILDNLGCS-OH (disulfide 1-34, 20-44) [Compound C196]",1.6

# Same assay, conditions: Table 2B, binding to Nectin-4; read-out: Binding Affinity (KD)
row,Compound,Kd [nM]
1,"Ac-CEYDEEFFAGLKRLRRGDICYYIKKKFDKVPDLCIEEILDKLGC-OH (disulfide 1-34, 20-44) [Compound C14]",14.1
2,"Ac-CEYDEEFFKGLKRLRGGDICYYIKKKFKKVPKLCIEEILDKLGC-OH (disulfide 1-34, 20-44) [Compound C80]",2.7
3,"Ac-CEYDEEFFLGLKRLRGGDICYYIKKKFKKVPDLCIEEILDKLGC-OH (disulfide 1-34, 20-44) [Compound C34]",3.17
4,"Ac-CEYDEEFFLGLKRLRGGDICYYIKKKFKKVPDLCIEEILEKLGC-OH (disulfide 1-34, 20-44) [Compound C60]",3.17
5,"Ac-CEYDEEFFLGLKRLRGGDICYYIKKKFKKVPELCIEEILKKLGC-OH (disulfide 1-34, 20-44) [Compound C67]",2.64
6,"Ac-CEYDEEFFTALARLRGGDICYYIQAKFQYLPGLCIEEILDNLGCS-OH (disulfide 1-34, 20-44) [Compound C124]",1.1
7,"Ac-CEYDEKFFTGLKRLRGGDICYYIKKKFKKVPKLCIEEILDKLGC-OH (disulfide 1-34, 20-44) [Compound C70]",2.2

# System: not listed separately
# Test: In vivo biodistribution of 111In-labeled miniproteins by SPECT/CT, HT-1376 xenograft
# Set-up: species or system mouse
# Settings: female, athymic nude, mouse, in vivo
# Excerpt: HT-1376 is a human cell line that expresses Nectin-4.
# Humane endpoints: All animals were euthanized following the final imaging time point and carcasses were discarded according to IACUC protocols.
# Image Processing: Images were generated as SPECT/CT pairs with the SPECT reported in units of activity.
# Image generation: After the preprocessing described in A, individual maximum intensity projections (MIPs) were created with VivoQuant software for each subject at each time point and scaled in percent injected dose per gram (% ID/g). The CT for each image was windowed from −500 to 4500 Hounsfield Units (HU). The SPECT was windowed at various ranges to highlight different regions of uptake. Images were then stitched together using Image Magick based python tools to create montages of subjects over time and time points over groups.
Compound,tissue uptake at 4 h [%ID/g],tissue uptake at 24 h [%ID/g]
CC[C@H](C)[C@@H]1NC(=O)[C@H](Cc2ccc(O)cc2)NC(=O)[C@H](Cc2ccc(O)cc2)NC(=O)[C@@H]2CSSC[C@@H](C(=O)O)NC(=O)CNC(=O)[C@H](CC(C)C)NC(=O)[C@H](CC(N)=O)NC(=O)[C@H](CCC(=O)O)NC(=O)[C@H](CC(C)C)NC(=O)[C@H]([C@@H](C)CC)NC(=O)[C@H](CCC(=O)O)NC(=O)[C@H](CCC(=O)O)NC(=O)[C@H]([C@@H](C)CC)NC(=O)[C@H](CSSC[C@H](NC(C)=O)C(=O)N[C@@H](CCC(=O)O)C(=O)N[C@@H](Cc3ccc(O)cc3)C(=O)N[C@@H](CC(=O)O)C(=O)N[C@@H](CCC(=O)O)C(=O)N[C@@H](CCC(N)=O)C(=O)N[C@@H](Cc3ccccc3)C(=O)N[C@@H](Cc3ccccc3)C(=O)N[C@@H]([C@@H](C)O)C(=O)N[C@@H](C)C(=O)N[C@@H](CC(C)C)C(=O)N[C@@H](CCCCN)C(=O)N[C@@H](CCCNC(=N)N)C(=O)N[C@@H](CC(C)C)C(=O)N[C@@H](CCCNC(=N)N)C(=O)NCC(=O)NCC(=O)N[C@@H](CC(=O)O)C(=O)N[C@@H]([C@@H](C)CC)C(=O)N2)NC(=O)[C@H](CC(C)C)NC(=O)[C@H](CC(=O)O)NC(=O)[C@@H]2CCCN2C(=O)[C@H](CC(C)C)NC(=O)[C@H]([C@@H](C)O)NC(=O)[C@H](CC(N)=O)NC(=O)[C@H](Cc2ccccc2)NC(=O)[C@H](CCC(N)=O)NC(=O)[C@H](C)NC(=O)[C@H](CO)NC1=O [Compound C100],112,61.8
"{DOTA-PEG4}-CEYDEEFFTALKRLRGGDICYYIQKAFQYLPGLCIEEILDNLGCS-OH (disulfide 1-34, 20-44) [Compound C121]",100,60.4
"{DOTA-PEG4}-CEYDEEFFTALSRLRGGDICYYIQQAFQYLPGLCIEEILDNLGCS-OH (disulfide 1-34, 20-44) [Compound C133]",43.8,20.9
"{DOTA-PEG4}-CEYDEQFFTALARLRGGDICYYIQEQFATVPGLCIEEILDQLGCS-OH (disulfide 1-34, 20-44) [Compound C129]",43.5,19.9
"{DOTA-PEG4}-CEYDEQFFTALSSLRGGDICYYIQEQFANVPGICIEEILDNLGCS-OH (disulfide 1-34, 20-44) [Compound C137]",78.8,42.9
